Laboratory results taken from patent US10632125B2, “MTH1 inhibitors for treatment of inflammatory and autoimmune conditions” (THOMAS HELLEDAYS STIFTELSE FÖR MEDICINSK FORSKNING, priority 2014, dated 2020).

Molecular target: MTH1 (Homo sapiens, UniProt P36639)
Experiment: MTH1 enzymatic assay (malachite green, coupled to pyrophosphatase)
Format: biochemical
Settings: dGTP 100 μM, MTH1 6 nM; 96- or 384-well format; read-out: IC50

| SMILES | IC50 |
| --- | --- |
| CNc1cc(-c2cc(C(F)(F)F)ccc2C(F)(F)F)nc(N)n1 [Example 196, 6-[2,5-bis(trifluoromethyl)phenyl]-4-N-methylpyrimidine-2,4-diamine] | < 200 nM |
| CNc1cc(-c2cc(C)ccc2F)nc(N)n1 [Example 200, 6-(2-fluoro-5-methylphenyl)-4-N-methylpyrimidine-2,4-diamine] | < 200 nM |
| CNc1cc(-c2cc(C)ccc2OC)nc(N)n1 [Example 204, 6-(2-methoxy-5-methylphenyl)-4-N-methylpyrimidine-2,4-diamine] | < 200 nM |
| CNc1cc(-c2cc(F)ccc2Cl)nc(N)n1 [Example 205, 6-(2-chloro-5-fluorophenyl)-4-N-methylpyrimidine-2,4-diamine] | < 200 nM |
| CNc1cc(-c2cc(C#N)ccc2F)nc(N)n1 [Example 206, 3-[2-amino-6-(methylamino)pyrimidin-4-yl]-4-fluorobenzonitrile] | < 200 nM |
| CNc1cc(-c2cc(OC)ccc2Cl)nc(N)n1 [Example 207, 6-(2-chloro-5-methoxyphenyl)-4-N-methylpyrimidine-2,4-diamine] | < 200 nM |
| CNc1cc(-c2cc(Cl)c(C)cc2F)nc(N)n1 [Example 214, 6-(5-chloro-2-fluoro-4-methylphenyl)-4-N-methylpyrimidine-2,4-diamine] | < 200 nM |
| Cc1cc(-c2cc(NC3CC3)nc(N)n2)c(C)cc1F [Example 216, 4-N-cyclopropyl-6-(4-fluoro-2,5-dimethylphenyl)pyrimidine-2,4-diamine] | < 200 nM |
| COc1cc(C)c(-c2cc(NC3CC3)nc(N)n2)cc1C [Example 217, 4-N-cyclopropyl-6-(4-methoxy-2,5-dimethylphenyl)pyrimidine-2,4-diamine] | < 200 nM |
| Cc1ccc(C)c(-c2cc(NC3CC3)nc(N)n2)c1 [Example 218, 4-N-cyclopropyl-6-(2,5-dimethylphenyl)pyrimidine-2,4-diamine] | < 200 nM |
| CCNc1cc(-c2cc(Cl)ccc2C)nc(N)n1 [Example 221, 6-(5-chloro-2-methylphenyl)-4-N-ethylpyrimidine-2,4-diamine] | < 200 nM |
| Cc1cc(-c2cc(NCCc3ccc(Cl)cc3)nc(N)n2)c(C)cc1F [Example 223, 4-N-[2-(4-chlorophenyl)ethyl]-6-(4-fluoro-2,5-dimethylphenyl)pyrimidine-2,4-diamine] | < 200 nM |
| Cc1ccc(C)c(-c2cc(NCCc3ccc(Cl)cc3)nc(N)n2)c1 [Example 224, 4-N-[2-(4-chlorophenyl)ethyl]-6-(2,5-dimethylphenyl)pyrimidine-2,4-diamine] | < 200 nM |
| CNc1cc(-c2ccc(/C=C/C(=O)O)cc2)nc(N)n1 [Example 233, (2E)-3-{4-[2-amino-6-(methylamino)pyrimidin-4-yl]phenyl}prop-2-enoic acid] | < 200 nM |
| Cc1cccc(-c2cc(NCC3CN(C(=O)OC(C)(C)C)C3)nc(N)n2)c1C [Example 234, tert-butyl 3-({[2-amino-6-(2,3-dimethylphenyl)pyrimidin-4-yl]amino}methyl)-azetidine-1-carboxylate] | < 200 nM |
| Nc1nc(NC2CC2)cc(-c2ccc3[nH]ccc3c2)n1 [Example 235, 4-N-cyclopropyl-6-(1H-indol-5-yl)pyrimidine-2,4-diamine] | < 200 nM |
| Cc1cccc(-c2cc(NCC(C)(C)CNC(=O)OC(C)(C)C)nc(N)n2)c1C [Example 239, tert-Butyl (3-((2-amino-6-(2,3-dimethylphenyl)pyrimidin-4-yl)amino)-2,2-dimethyl-propyl)carbamate] | < 200 nM |
| CNc1cc(-c2cc(Cl)c(OC)cc2C)nc(N)n1 [Example 240, 6-(5-chloro-4-methoxy-2-methylphenyl)-4-N-methylpyrimidine-2,4-diamine] | < 200 nM |
| Cc1c(Cl)cccc1-c1cc(NC(C)Cc2c[nH]c3ccccc23)nc(N)n1 (stereo not shown) [Example 243, 6-(3-chloro-2-methylphenyl)-4-N-[1-(1H-indol-3-yl)propan-2-yl]pyrimidine-2,4-diamine] | < 200 nM |
| Cc1cccc(-c2cc(NCCOc3ccccc3Cl)nc(N)n2)c1C [Example 247, 4-N-[2-(2-chlorophenoxy)ethyl]-6-(2,3-dimethylphenyl)pyrimidine-2,4-diamine] | < 200 nM |
| Cc1cccc(-c2cc(NCCc3nc4cc(Cl)ccc4[nH]3)nc(N)n2)c1C [Example 248, 4-N-[2-(5-chloro-1H-1,3-benzodiazol-2-yl)ethyl]-6-(2,3-dimethylphenyl)pyrimidine-2,4-diamine] | < 200 nM |
| Cc1cccc(-c2cc(NCC(C)Oc3cccnc3)nc(N)n2)c1C (stereo not shown) [Example 250, 6-(2,3-dimethylphenyl)-4-N-[2-(pyridin-3-yloxy)propyl]pyrimidine-2,4-diamine] | < 200 nM |
| Cc1cccc(-c2cc(NCc3ccc4[nH]ncc4c3)nc(N)n2)c1C [Example 251, 6-(2,3-dimethylphenyl)-4-N-(1H-indazol-5-ylmethyl)pyrimidine-2,4-diamine] | < 200 nM |

| SMILES | IC50 |
| --- | --- |
| COc1cc(CNc2cc(-c3cccc(C)c3C)nc(N)n2)ccn1 [Example 253, 6-(2,3-dimethylphenyl)-4-N-[(2-methoxypyridin-4-yl)methyl]pyrimidine-2,4-diamine] | < 200 nM |
| CNc1cc(-c2cccc(C#N)c2C)nc(N)n1 [Example 258, 3-[2-amino-6-(methylamino)pyrimidin-4-yl]-2-methylbenzonitrile] | < 200 nM |
| CNc1cc(-c2cccc3c2OCC3)nc(N)n1 [Example 261, 6-(2,3-dihydro-1-benzofuran-7-yl)-4-N-methylpyrimidine-2,4-diamine] | < 200 nM |
| CNc1cc(-c2cc(S(=O)(=O)N3CCOCC3)ccc2C)nc(N)n1 [Example 262, 4-N-methyl-6-[2-methyl-5-(morpholine-4-sulfonyl)phenyl]pyrimidine-2,4-diamine] | < 200 nM |
| Nc1nc(NCCc2ccc(Cl)cc2)cc(-c2cccc(Cl)c2Cl)n1 [Example 263, 4-N-[2-(4-chlorophenyl)ethyl]-6-(2,3-dichlorophenyl)pyrimidine-2,4-diamine] | < 200 nM |
| Cc1cccc(-c2cc(NCCc3cccnc3)nc(N)n2)c1C [Example 268, 6-(2,3-dimethylphenyl)-4-N-[2-(pyridin-3-yl)ethyl]pyrimidine-2,4-diamine] | < 200 nM |
| Cc1cccc(-c2cc(NCCNC(=O)OC(C)(C)C)nc(N)n2)c1C [Example 271, tert-butyl N-(2-{[2-amino-6-(2,3-dimethylphenyl)pyrimidin-4-yl]amino}ethyl)-carbamate] | < 200 nM |
| Cc1cccc(-c2cc(NCCN(C)C(=O)OC(C)(C)C)nc(N)n2)c1C [Example 274, tert-butyl N-(2-{[2-amino-6-(2,3-dimethylphenyl)pyrimidin-4-yl]amino}ethyl)-N-methylcarbamate] | < 200 nM |
| Cc1cccc(-c2cc(NCc3ccc(S(C)(=O)=O)cc3)nc(N)n2)c1C [Example 279, 6-(2,3-dimethylphenyl)-4-N-[(4-methanesulfonylphenyl)methyl]pyrimidine-2,4-diamine] | < 200 nM |
| Cc1cccc(-c2cc(NCc3ccc(N4CCN(C)CC4)cc3)nc(N)n2)c1C [Example 280, 6-(2,3-dimethylphenyl)-4-N-{[4-(4-methylpiperazin-1-yl)phenyl]methyl}pyrimidine-2,4-diamine] | < 200 nM |
| Cc1cccc(-c2cc(NCC3CCN(C(=O)OC(C)(C)C)CC3)nc(N)n2)c1C [Example 283, tert-butyl 4-({[2-amino-6-(2,3-dimethylphenyl)pyrimidin-4-yl]amino}methyl)-piperidine-1-carboxylate] | < 200 nM |
| CC(=O)NCCCCNc1cc(-c2cccc(Cl)c2Cl)nc(N)n1 [Example 303, N-(4-{[2-Amino-6-(2,3-dichlorophenyl)pyrimidin-4-yl]amino}butyl)acetamide] | < 200 nM |
| Nc1nc(NCc2ccc(-c3csnn3)cc2)cc(-c2cccc(Cl)c2Cl)n1 [Example 305, 6-(2,3-Dichlorophenyl)-4-N-{[4-(1,2,3-thiadiazol-4-yl)phenyl]methyl}pyrimidine-2,4-diamine] | < 200 nM |
| C=CC(=O)Nc1cccc(-c2cc(NC)nc(N)n2)c1 [Example 309, N-{3-[2-Amino-6-(methylamino)pyrimidin-4-yl]phenyl}prop-2-enamide] | < 200 nM |
| CNc1cc(-c2cccc(NC(=O)/C=C/c3ccccc3)c2)nc(N)n1 [Example 310, (2E)-N-{3-[2-Amino-6-(methylamino)pyrimidin-4-yl]phenyl}-3-phenylprop-2-enamide] | < 200 nM |
| C=CC(=O)Nc1cccc(-c2cc(NC)nc(N)n2)c1C [Example 311, N-{3-[2-Amino-6-(methylamino)pyrimidin-4-yl]-2-methylphenyl}prop-2-enamide] | < 200 nM |
| C#CC(=O)Nc1cccc(-c2cc(NC)nc(N)n2)c1 [Example 314, N-{3-[2-Amino-6-(methylamino)pyrimidin-4-yl]phenyl}prop-2-ynamide] | < 200 nM |
| CNc1cc(-c2cccc(NC(=O)c3cc(Cl)ccc3O)c2)nc(N)n1 [Example 321, N-{3-[2-Amino-6-(methylamino)pyrimidin-4-yl]phenyl}-5-chloro-2-hydroxybenzamide] | < 200 nM |
| CNc1cc(-c2cccc(NC(=O)CCC(=O)N3CCCC3)c2)nc(N)n1 [Example 325, N-{3-[2-Amino-6-(methylamino)pyrimidin-4-yl]phenyl}-4-oxo-4-(pyrrolidin-1-yl)butanamide] | < 200 nM |
| CNc1cc(-c2cccc(CN)c2)nc(N)n1 [Example 328, 6-[3-(Aminomethyl)phenyl]-4-N-methylpyrimidine-2,4-diamine] | < 200 nM |
| Cc1nc(CCNc2cc(-c3cccc(C)c3C)nc(N)n2)n[nH]1 [Example 332, 6-(2,3-Dimethylphenyl)-4-N-[2-(5-methyl-1H-1,2,4-triazol-3-yl)ethyl]pyrimidine-2,4-diamine] | < 200 nM |
| Cc1cccc(-c2cc(NCCn3ccccc3=O)nc(N)n2)c1C [Example 337, 1-(2-{[2-Amino-6-(2,3-dimethylphenyl)pyrimidin-4-yl]amino}ethyl)-1,2-dihydropyridin-2-one] | < 200 nM |
| Cc1cccc(-c2cc(NCc3ccc[nH]c3=O)nc(N)n2)c1C [Example 338, 3-({[2-Amino-6-(2,3-dimethylphenyl)pyrimidin-4-yl]amino}methyl)-1,2-dihydropyridin-2-one] | < 200 nM |
